{"source": "patent US8158170B2", "about": "(SNU R&DB Foundation, priority 2006, dated 2012)", "key": {"[1]": {"test_system": "inducible nitric oxide synthase (iNOS)", "assay": "Expression of iNOS in liver tissue by Western blotting", "format": "in vivo, rats", "conditions": "expression strongly induced by chronic alcohol intake; oral daily for the last week, alone or concurrently; FIG. 7", "from_the_text": "iNOS is an enzyme strongly inducing inflammation in liver tissue. The induction of the expression of iNOS is considered as a primary mechanism of alcohol-induced liver damage (Mckim, et al., Gastroenterology 125:1834-1844, 2003; and Venkatraman A, et al., Hepatology 40: 565-573, 2004)."}, "[2]": {"test_system": "fatty acid synthase (FAS)", "assay": "Expression of FAS in liver tissue by Western blotting", "format": "in vivo, rats", "conditions": "expression decreased by chronic alcohol intake; oral daily for the last week, alone at high dose or concurrently; FIG. 5", "from_the_text": "The decreased expression of FAS was not restored by the administration of metadoxine or garlic oil alone at high dose."}, "[3]": {"test_system": "AMP-activated protein kinase (AMPK)", "assay": "Activity (phospho level) of AMPK in liver tissue by Western blotting", "format": "in vivo, rats", "conditions": "activity decreased due to alcohol intake; oral daily for the last week, alone or concurrently; FIG. 8", "procedure": "(§1) Sodium dodecyl sulfate-polyacrylamide gel electrophoresis (SDS-PAGE) was carried out using Mighty Small II SE 250 apparatus according to the Laemmli UK method (1970). Lysis fraction of liver tissue was diluted in a sample dilution buffer [63 mM Tris (pH 6.8), 10% glycerol, 2% SDS, 0.0013% bromophenol blue, 5% β-mercaptoethanol] and electrophoresis was performed in an electrode buffer (15 g of Tris, 72 g of glycine and 5 g of SDS in 1 L) using 7.5% and 9% gel. After electrophoresis, proteins were transferred to nitrocellulose paper at 190 mAmps for a duration of 1 hour, using a transfer buffer [25 mM Tris, 192 mM glycine, 20% v/v methanol (pH 8.3)]. Anti-fatty acid synthase, anti-iNOS, anti-phospho AMPK-α anti-phospho ACC, anti-Fox01, anti-Fox03 and anti-CYP2E1 were reacted as primary antibodies. […] Change in the expression of proteins was analyzed by determining the color intensity of blots through densitometry. […]\n(§2) The levels of AMPK (AMP-activated protein kinase), a critical enzyme involved in the oxidation of fatty acid, and phosphate form of ACC (acetyl-CoA carboxylase), a substrate of AMPK, in the liver tissue taken in Example 1 were analyzed by Western blotting."}, "[4]": {"test_system": "acetyl-CoA carboxylase (ACC)", "conditions": "activity decreased due to alcohol intake; oral daily for the last week, alone or concurrently; FIG. 9", "procedure": "as §1, §2"}}}
{"smiles": "Cc1ncc(CO)c(CO)c1O.O=C1CCC(C(=O)O)N1", "note": "[metadoxine, pyridoxol 1-2-pyrrolidone-5-carboxylate]", "values": [{"measurement": "expression of iNOS in liver tissue", "setting": "[1]", "result": "decreased"}, {"measurement": "expression of fatty acid synthase (FAS) in liver tissue", "setting": "[2]", "result": "not restored"}, {"measurement": "activity of AMPK in liver tissue", "setting": "[3]", "result": "no change"}, {"measurement": "activity of ACC in liver tissue", "setting": "[4]", "result": "no change"}]}
